Here are results for three compounds from paper PMC10587081, “Biochemical and structural basis of mercuric reductase, GbsMerA, from Gelidibacter salicanalis PAMC21136” (Scientific Reports, 2023).

One assay concerns the target T1, GbsMerA (Gelidibacter salicanalis, UniProt A0A934NG65).
T1 construct: gene JEM65_00875; full length, 449 aa, pET32a(+) (BamHI/XhoI), N-terminal His6 tag and vector tag cleaved with enterokinase, E. coli BL21, SEC, homodimer with non-covalent FAD; no NmerA domain and no C-terminal Cys-Cys motif; primers encode N-terminus MKEYDV and C-terminus IPHML
T1 sequence (A0A934NG65 1-448): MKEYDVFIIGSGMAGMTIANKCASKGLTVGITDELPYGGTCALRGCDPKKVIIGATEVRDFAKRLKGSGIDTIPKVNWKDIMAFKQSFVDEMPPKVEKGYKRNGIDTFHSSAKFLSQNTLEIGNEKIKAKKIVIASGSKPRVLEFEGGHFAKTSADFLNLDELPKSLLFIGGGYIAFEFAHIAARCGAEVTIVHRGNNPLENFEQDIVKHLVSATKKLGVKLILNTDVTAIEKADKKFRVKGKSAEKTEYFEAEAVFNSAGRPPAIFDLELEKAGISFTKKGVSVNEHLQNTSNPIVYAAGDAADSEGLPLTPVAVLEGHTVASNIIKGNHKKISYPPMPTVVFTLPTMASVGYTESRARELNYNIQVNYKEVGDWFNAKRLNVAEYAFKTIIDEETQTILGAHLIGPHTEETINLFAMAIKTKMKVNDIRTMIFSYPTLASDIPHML
In words: X-ray crystal structure. The assay is classed as binding.

The target in assay [1] is mercuric reductase GbsMerA from Gelidibacter salicanalis PAMC21136 (Gelidibacter salicanalis PAMC21136). The assay is described as follows: crystal structure; sitting drop vapor diffusion at 22 °C; GbsMerA 35 mg/mL with 1.6 M sodium phosphate monobasic/0.4 M potassium phosphate dibasic, 0.1 M sodium phosphate dibasic/citric acid pH 4.2; homodimer in the asymmetric unit.

Regarding `NC(=O)C1=CN([C@@H]2O[C@H](COP(=O)(O)OP(=O)(O)OC[C@H]3O[C@@H](n4cnc5c(N)ncnc54)[C@H](OP(=O)(O)O)[C@@H]3O)[C@@H](O)[C@H]2O)C=CC1` [NADPH], the X-ray crystal structure result at GbsMerA (complex with FAD and NADPH, bicine/Trizma pH 8.5, re-face of the FAD isoalloxazine ring) is “Furthermore, we determined the GbsMerA–NADPH complex structure”.
On to `Cc1cc2nc3c(=O)[nH]c(=O)nc-3n(C[C@H](O)[C@H](O)[C@H](O)COP(=O)(O)OP(=O)(O)OC[C@H]3O[C@@H](n4cnc5c(N)ncnc54)[C@H](O)[C@@H]3O)c2cc1C` [FAD], for which the X-ray crystal structure result on GbsMerA (2.6 Å, non-covalently bound FAD in FAD-binding domain, crystallised at pH 4.2 (phosphate/citrate)) is “Non-covalently bound FAD is located in the central region of the FAD-binding domain”.
As for “mercuric reductase GbsMerA from Gelidibacter salicanalis PAMC21136 (enzyme)”, the stoichiometry N in assay [1] is 2.
